Assay results from patent publication US20240376080A1, “COMPOUND AS TYK2/JAK1 PSEUDOKINASE DOMAIN INHIBITOR, AND SYNTHESIS AND USE METHODS” (ZHEJIANG WENDA PHARMACEUTICAL TECHNOLOGY CO., LTD., priority 2021, published 2024).

Assays:
[1] = system: IFN-α/pSTAT5 in CD3+ cells (human PBMC); assay: Inhibitory effect on expression of pSTAT5 in CD3+ cells using FACS detection (IFN-α stimulated); type: cell-based; settings: IFN-α 30 ng/ml
Description: Test Example 1: The Inhibitory Effect of Compounds on the Expression of pSTAT5 in CD3+Cells Using FACS Detection
• DMSO, Sigma, Cat #D2650-100 mL, stored at room temperature. • Perm buffer III, BD Biosciences, Cat #558050, stored at 4° C. • Lyse/Fix buffer, BD Biosciences, Cat #558049, stored at room temperature. • EDTA, Invitrogen, Cat #15575-038, stored at room temperature. • PBS, Hyclone, Cat #SH30256.01, stored at 4° C. • PE Mouse Anti-Human CD3, BD Biosciences, Cat #555333, stored at 4° C. • Mouse anti-human Phosphorylation-STAT5 (pY694) (Alexa Fluor® 647 Conjugate), BD Biosciences, Cat #562076, stored at 4° C. • IFN-α, Biolegend, Cat #592702
1) On the day of experiment, the compound was prepared into a 10 mM solution with DMSO, diluted to 1.5 mM in DMSO, and then diluted to 8 gradient concentrations in 3-fold dilutions.
2) 5 μL of the diluted compound was transferred into 120 ul of DPBS solution containing 0.1% BSA.
3) Positive and negative control groups were set up, with the addition of 0.2% DMSO to the positive and negative control groups.
1) Add 0.5 million and 67.5 uL of human PBMC cells to each well of the 96-well cell culture plate.
2) Add 3.5 uL of diluted compound and mix well.
3) Incubate in a 37° C. incubator for 60 minutes.
4) Dilute IFN-alpha in DPBS containing 0.1% BSA to 600 ng/mL, and dilute PE-anti-hCD3 antibody in DPBS containing 0.1% BSA to 3 fold. After the above incubation for 60-minute, add diluted PE-anti-hCD3 antibody at 5 uL per well and add diluted IFN-α at 4 uL per well, i.e., the final concentration of IFN-α per well was 30 ng/ml.
5) Incubate in a 37° C. incubator for 30 minutes.
6) Transfer all cells to a 96-well deep well plate and add 1 mL of 37° C. preheated lysis/fix buffer.
7) Incubate at 37° C. in dark for 10 minutes.
8) Centrifuge at 600 g for 5 minutes and then discard the supernatant. Wash by adding 1 mL of PBS for twice and centrifuge.
9) Add 1 mL of Perm buffer III to the cell precipitation.
10) Incubate at 4° C. in dark for 30 minutes.
11) Centrifuge at 600 g for 5 minutes and then discard the supernatant. Wash by adding 1 mL of PBS for twice and centrifuge.
12) Dilute APC anti-human pSTAT5 antibody in staining buffer for 200 fold, and add it to cell well at 100 uL per well and mix well.
13) Incubate at room temperature for 40 minutes.
14) Wash twice by adding staining buffer with 1 mL for each well, and centrifuge at 600 g for 5 minutes.
15) Discard the supernatant, and re-suspend the cell precipitation in 300 uL of staining buffer.
16) Sample and analyze in a flow cytometer to obtain the IC50 of the samples to be tested, Table 1.

[2] = target: TYK2 (JH1) (Homo sapiens (Human), UniProt P29597); assay: Kinase (JH1) experiment, TYK2; type: biochemical; settings: kinase domain
TYK2 (JH1), sequence (P29597 897-1176): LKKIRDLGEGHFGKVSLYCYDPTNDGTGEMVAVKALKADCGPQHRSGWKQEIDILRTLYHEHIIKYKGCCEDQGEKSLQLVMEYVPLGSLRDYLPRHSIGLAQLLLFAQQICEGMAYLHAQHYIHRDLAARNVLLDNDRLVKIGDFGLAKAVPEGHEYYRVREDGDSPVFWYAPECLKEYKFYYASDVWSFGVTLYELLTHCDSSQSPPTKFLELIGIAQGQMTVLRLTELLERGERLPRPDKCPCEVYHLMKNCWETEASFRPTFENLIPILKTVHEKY
Description: 1.2. Kinase (JH1) Experiment Operation was as Follows:
1.2.1. Dissolve the compound with DMSO to a storage concentration of 10 mM.
1.2.2. Prepare a compound with a concentration of 100 times the final concentration in a compound dilution plate by diluting it from the highest concentration point for a total of 4 concentration points using a 27 times dilution method, and transfer it to the Echo plate.
1.2.3. Use an Echo instrument to pulse the compound from the Echo plate to a 384 experimental plate, thereby obtain the compound with 11 concentration points of the 3-fold dilution matrix.
1.2.4. Configure a 2× kinase working solution and add it to a 384-well experimental plate at 5 uL per well. Incubate the compound and the kinase at room temperature for 15 minutes.
1.2.5. Add 5 ul 2× substrate (containing ATP) to the 384 well plate.
1.2.6. Incubate at room temperature for 45 minutes.
1.2.7. Add the detection reagent mixture to the 384-well plate, centrifuge for 30 seconds, and incubate at room temperature for 60 minutes.
1.2.8. Read the signal values using Envision Microplate Reader (PerkinElmer).
1.3.1. Use XL-Fit software for data analysis to obtain IC50 of the compounds, see Table 2 for results.

| SMILES | IC50 [1] [nM] | IC50 [2] [nM] |
| --- | --- | --- |
| [2H]C([2H])([2H])NC(=O)c1nnc(NC(=O)[C@@H]2CC23CC3)cc1Nc1cccc(-c2ncn(C)n2)c1OC [Compound 1R] | 6.3 | > 9950 |
| [2H]C([2H])([2H])NC(=O)c1nnc(NC(=O)[C@H]2CC23CC3)cc1Nc1cccc(-c2ncn(C)n2)c1OC [Compound 1S] | 4.2 | > 9950 |
| [2H]C([2H])([2H])NC(=O)c1nnc(NC(=O)[C@@H]2CC23CC3)cc1Nc1nccc(-c2ncn(C)n2)c1OC [Compound 2R] | 5.7 | > 9950 |
| [2H]C([2H])([2H])NC(=O)c1nnc(NC(=O)[C@H]2CC23CC3)cc1Nc1nccc(-c2ncn(C)n2)c1OC [Compound 2S] | 3.9 | > 9950 |
| [2H]C([2H])([2H])NC(=O)c1nnc(NC(=O)[C@H]2CC23CC3)cc1Nc1cccc(-c2noc(COC)n2)c1OC [Compound 3S] | 22.8 |  |
| [2H]C([2H])([2H])NC(=O)c1cnc(NC(=O)[C@@H]2CC23CC3)cc1Nc1cccc(-c2ncn(C)n2)c1OC [Compound 4R] | 5.3 | > 9950 |
| [2H]C([2H])([2H])NC(=O)c1cnc(NC(=O)[C@H]2CC23CC3)cc1Nc1cccc(-c2ncn(C)n2)c1OC [Compound 4S] | 4.1 | > 9950 |
| [2H]C([2H])([2H])NC(=O)c1nnc(NC(=O)C2CC23CC3)cc1Nc1nccc(-c2noc(COC)n2)c1OC (centres unmarked) [Compound 5] | 13 |  |
